Laboratory results taken from patent US20030211163A1, “Combination antiviral therapy” (priority 2002, published 2003).
Converted amounts (≈) assume the structure as drawn. Where two headings read alike, the source gives them in different places.

What was measured:
[1] = Solubility of the drug in vehicles (drug saturated solutions); format: physicochemical
[2] = Franz diffusion cell skin drug permeation through cadaver skin, 24 hour period, HPLC; format: in vitro ADME; conditions: for Flux: cadaver skin; for Skin Flux: Table 4 (examples)
Method: As a way of measuring the skin drug permeation properties of the COX-2 inhibitors, a Franz diffusion cell was provided utilizing cadaver skin as the membrane and a 1% Tween 80 solution as the receptor phase. Frozen cadaver skin was thawed at room temperature and punched with a 20 mm puncher. The receptor compartment of the Franz diffusion cell was filled with 1% Tween 80 solution and the diffusion cells maintained at 32° C. A 6% polyethylene glycol-20-oleyl ether is also suitable as a receptor fluid. The skin was mounted on the receptor, covered with the cup and fastened by a clamp. The air bubbles were removed from the receptor fluid and it was allowed to equilibrate for 30 minutes. COX-2 pharmaceutical compositions, according to the present invention, were brought into contact with the cadaver skin and the amount of drug which permeated through the cadaver skin in a 24 hour period was determined by high performance liquid chromatography.

[3] = Table 1, drug saturated solution, vehicle 70% EtOH, 32° C.
[4] = Table 1, drug saturated solution, vehicle EtOH
[5] = Table 6 (examples), Saturated Cb in 5% Pb, 67% EtOH
[6] = Table 6 (examples), Saturated Vb in 5% Pb, 67% EtOH

solubility ([1]; 70% aqueous ethanol, aqueous with cosolvent or surfactant or cyclodextrin, thermodynamic from solid, Table 1, drug saturated solution, vehicle 70% EtOH, read-out: Solubility) [mg/mL]	solubility ([1]; Table 2, 70% aqueous ethanol solution) [mg/mL]	solubility ([1]; ethanol, organic solvent or mixture, thermodynamic from solid, Table 1, drug saturated solution, vehicle EtOH, read-out: Solubility) [mg/mL]	solubility ([1]; polyethylene glycol 400, organic solvent or mixture, thermodynamic from solid, Table 1, drug saturated solution, vehicle PEG 400, read-out: Solubility) [mg/mL]	solubility ([1]; propylene glycol, organic solvent or mixture, thermodynamic from solid, Table 1, drug saturated solution, vehicle PG, read-out: Solubility) [mg/mL]	Flux [2, 3] [μg/cm^2 · day]	Flux [2, 4] [μg/cm^2 · day]	Flux [2, 5] [μg/cm^2 · day]	solubility ([1]; aqueous with cosolvent or surfactant or cyclodextrin, thermodynamic from solid) [mg/mL]	Flux [2, 6] [μg/cm^2 · day]	Effect as permeation enhancer on transdermal delivery of selective COX-2 drugs across the skin ([2]; parecoxib used as permeation enhancer)	Skin Flux ([2]; % w/w: water 30, ethanol 30, isopropanol 10, 1,3-butanediol 22, oleyl alcohol 5, thymol 3) [μg/cm^2 · day]	Skin Flux ([2]; % w/w: water 30, ethanol 62, oleyl alcohol 5, thymol 3) [μg/cm^2 · day]	Skin Flux ([2]; % w/w: water 33, ethanol 62, oleyl alcohol 5) [μg/cm^2 · day]	Structure (SMILES)
15.2 (≈ 39.9 mM)	15.2 (≈ 39.9 mM)	91.4 (≈ 240 mM)	297 (≈ 779 mM)	33.3 (≈ 87.3 mM)	15.7	5.62	183 ± 153							Cc1ccc(-c2cc(C(F)(F)F)nn2-c2ccc(S(N)(=O)=O)cc2)cc1 [Celecoxib, celecoxib]
							74.7 ± 14.7	386 (≈ 1040 mM)	64.1 ± 11.3	increase the transdermal delivery				CCC(=O)NS(=O)(=O)c1ccc(-c2c(-c3ccccc3)noc2C)cc1 [Parecoxib, parecoxib]
					12.8	1.44			108 ± 16.7		302 ± 48.9	441 ± 160	287 ± 23.9	Cc1onc(-c2ccccc2)c1-c1ccc(S(N)(=O)=O)cc1 [Valdecoxib, valdecoxib]
